Laboratory results from the supplement of paper PMC10307832.

What was measured:
Assay in all cases: relative viability (nuclei count vs DMSO), 5 days (fraction); higher = more cells survive
PC-14 = test system: PC-14
Method in brief: (§1)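 Five library-drug doses in √10 steps were combined with a fixed anchor-drug dose, or a single drug was given alone, by pin tool to lung cancer cell lines in 1536-well plates the day after seeding. Nuclei were stained and counted after 5 days. Relative viability is the nuclei count in treated wells over that in vehicle wells, taken as the median of duplicate plates.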

NCI-H1563 = test system: NCI-H1563
Method in brief: as §1

HARA = test system: HARA
Method in brief: as §1

LU99A = test system: LU99A
Method in brief: as §1

HOP-62 = test system: HOP-62
Method in brief: as §1

NCI-H2087 = test system: NCI-H2087
Method in brief: as §1

LCLC-97TM1 = test system: LCLC-97TM1
Method in brief: as §1

CAL-12T = test system: CAL-12T
Method in brief: as §1

HCC-366 = test system: HCC-366
Method in brief: as §1

HCC-827 = test system: HCC-827
Method in brief: as §1

LC-2-ad = test system: LC-2-ad
Method in brief: as §1

COR-L23 = test system: COR-L23
Method in brief: as §1

BEN = test system: BEN
Method in brief: as §1

HCC-15 = test system: HCC-15
Method in brief: as §1

NCI-H727 = test system: NCI-H727
Method in brief: as §1

NCI-H2170 = test system: NCI-H2170
Method in brief: as §1

NCI-H2126 = test system: NCI-H2126
Method in brief: as §1

NCI-H2009 = test system: NCI-H2009
Method in brief: as §1

COR-L 105 = test system: COR-L 105
Method in brief: as §1

NCI-H1993 = test system: NCI-H1993
Method in brief: as §1

LXF-289 = test system: LXF-289
Method in brief: as §1

PC-3 [JPC-3] = test system: PC-3 [JPC-3]
Method in brief: as §1

SK-MES-1 = test system: SK-MES-1
Method in brief: as §1

SMILES: CCCCCCCCCCCC1=C(O)C(=O)C=C(O)C1=O [Embelin] + COc1cc2c(Oc3ccc(NC(=O)C4(C(=O)Nc5ccc(F)cc5)CC4)cc3F)ccnc2cc1OCCCN1CCOCC1 [Foretinib] (partner 0.25 µM)
- relative viability (PC-14; first compound 0.08 µM): 1.05
- relative viability (PC-14; first compound 0.8 µM): 0.992
- relative viability (PC-14; first compound 2.53 µM): 1.06
- relative viability (PC-14; first compound 8 µM): 1.08
- relative viability (NCI-H1563; first compound 0.08 µM): 0.932
- relative viability (NCI-H1563; first compound 0.8 µM): 1.09
- relative viability (NCI-H1563; first compound 2.53 µM): 0.944
- relative viability (NCI-H1563; first compound 8 µM): 0.896
- relative viability (HARA; first compound 0.08 µM): 0.827
- relative viability (HARA; first compound 0.8 µM): 0.968
- relative viability (HARA; first compound 2.53 µM): 1.18
- relative viability (HARA; first compound 8 µM): 0.942
- relative viability (LU99A; first compound 0.08 µM): 0.907
- relative viability (LU99A; first compound 0.8 µM): 0.934
- relative viability (LU99A; first compound 2.53 µM): 0.864
- relative viability (LU99A; first compound 8 µM): 0.766
- relative viability (HOP-62; first compound 0.08 µM): 1.27
- relative viability (HOP-62; first compound 0.8 µM): 1.18
- relative viability (HOP-62; first compound 2.53 µM): 1.23
- relative viability (HOP-62; first compound 8 µM): 1.25
- relative viability (NCI-H2087; first compound 0.08 µM): 1.07
- relative viability (NCI-H2087; first compound 0.8 µM): 1.27
- relative viability (NCI-H2087; first compound 2.53 µM): 1.03
- relative viability (NCI-H2087; first compound 8 µM): 1.19
- relative viability (LCLC-97TM1; first compound 0.08 µM): 0.988
- relative viability (LCLC-97TM1; first compound 0.8 µM): 0.943
- relative viability (LCLC-97TM1; first compound 2.53 µM): 1.04
- relative viability (LCLC-97TM1; first compound 8 µM): 0.899
- relative viability (CAL-12T; first compound 0.08 µM): 1.1
- relative viability (CAL-12T; first compound 0.8 µM): 1.22
- relative viability (CAL-12T; first compound 2.53 µM): 1.26
- relative viability (CAL-12T; first compound 8 µM): 1.16
- relative viability (HCC-366; first compound 0.08 µM): 0.906
- relative viability (HCC-366; first compound 0.8 µM): 1.03
- relative viability (HCC-366; first compound 2.53 µM): 0.94
- relative viability (HCC-366; first compound 8 µM): 0.99
- relative viability (HCC-827; first compound 0.08 µM): 0.993
- relative viability (HCC-827; first compound 0.8 µM): 1.11
- relative viability (HCC-827; first compound 2.53 µM): 1.03
- relative viability (HCC-827; first compound 8 µM): 1.16
- relative viability (LC-2-ad; first compound 0.08 µM): 0.916
- relative viability (LC-2-ad; first compound 0.8 µM): 0.987
- relative viability (LC-2-ad; first compound 2.53 µM): 1.13
- relative viability (LC-2-ad; first compound 8 µM): 0.861
- relative viability (COR-L23; first compound 0.08 µM): 1
- relative viability (COR-L23; first compound 0.8 µM): 1.13
- relative viability (COR-L23; first compound 2.53 µM): 1.01
- relative viability (COR-L23; first compound 8 µM): 1.14
- relative viability (BEN; first compound 0.08 µM): 0.681
- relative viability (BEN; first compound 0.8 µM): 0.954
- relative viability (BEN; first compound 2.53 µM): 0.677
- relative viability (BEN; first compound 8 µM): 0.867
- relative viability (HCC-15; first compound 0.08 µM): 1.01
- relative viability (HCC-15; first compound 0.8 µM): 1.08
- relative viability (HCC-15; first compound 2.53 µM): 1.14
- relative viability (HCC-15; first compound 8 µM): 1.08
- relative viability (NCI-H727; first compound 0.08 µM): 0.793
- relative viability (NCI-H727; first compound 0.8 µM): 1.13
- relative viability (NCI-H727; first compound 2.53 µM): 1.11
- relative viability (NCI-H727; first compound 8 µM): 0.761
- relative viability (NCI-H2170; first compound 0.08 µM): 0.539
- relative viability (NCI-H2170; first compound 0.8 µM): 1.08
- relative viability (NCI-H2170; first compound 2.53 µM): 1.06
- relative viability (NCI-H2170; first compound 8 µM): 1
- relative viability (NCI-H2126; first compound 0.08 µM): 1.12
- relative viability (NCI-H2126; first compound 0.8 µM): 1.21
- relative viability (NCI-H2126; first compound 2.53 µM): 1.23
- relative viability (NCI-H2126; first compound 8 µM): 1.2
- relative viability (NCI-H2009; first compound 0.08 µM): 1.24
- relative viability (NCI-H2009; first compound 0.8 µM): 1.33
- relative viability (NCI-H2009; first compound 2.53 µM): 1.24
- relative viability (NCI-H2009; first compound 8 µM): 1.17
- relative viability (COR-L 105; first compound 0.08 µM): 1.04
- relative viability (COR-L 105; first compound 0.8 µM): 1.05
- relative viability (COR-L 105; first compound 2.53 µM): 1.18
- relative viability (COR-L 105; first compound 8 µM): 0.807
- relative viability (NCI-H1993; first compound 0.08 µM): 0.803
- relative viability (NCI-H1993; first compound 0.8 µM): 0.699
- relative viability (NCI-H1993; first compound 2.53 µM): 0.876
- relative viability (NCI-H1993; first compound 8 µM): 0.834
- relative viability (LXF-289; first compound 0.08 µM): 0.999
- relative viability (LXF-289; first compound 0.8 µM): 1
- relative viability (LXF-289; first compound 2.53 µM): 1.06
- relative viability (LXF-289; first compound 8 µM): 0.998
- relative viability (PC-3 [JPC-3]; first compound 0.08 µM): 1.01
- relative viability (PC-3 [JPC-3]; first compound 0.8 µM): 1.02
- relative viability (PC-3 [JPC-3]; first compound 2.53 µM): 0.985
- relative viability (PC-3 [JPC-3]; first compound 8 µM): 1.08
- relative viability (SK-MES-1; first compound 0.08 µM): 0.943
- relative viability (SK-MES-1; first compound 0.8 µM): 1.22
- relative viability (SK-MES-1; first compound 2.53 µM): 0.972
- relative viability (SK-MES-1; first compound 8 µM): 0.94
